Peptide text beside a SMILES is read from it.
Assay: clinical
Settings: human, in vivo, iv, 400 mg; for AUC(0-inf): AUC0-inf
Source text: The drug-drug interaction study was a phase 1, single-center, multiarm, open-label, randomized, three-period crossover study. The objective was to evaluate the DDI potential and the PK of SPR741 coadministered with each of three partner antibiotics as well as the DDI and PK effects of three partner antibiotics administered alone and with SPR741. The study comprised a screening phase (day −28 to day −2), three treatment arms (day 1 to day 8 for each arm), and an end-of-study follow-up (day 9). Each subject participated in screening, one treatment arm, and the end-of-study follow-up. The maximum duration of participation for each subject was approximately 37 days. Subjects remained in the clinical unit from the day before dosing (day −1) to 24 h after the third and last dose period (day 8).
The DDI study consisted of three treatment arms with three dosing periods in each arm (days 1, 4, and 7). In random sequence, subjects received a single dose of study treatments with a 2-day washout period between each assigned treatment. In treatment arm 1, subjects received 400 mg of SPR741 i.v. over 1 h, 400 mg of SPR741 i.v. over 1 h plus 1.0 g of ceftazidime i.v. over 1 h, and 1.0 g of ceftazidime i.v. over 1 h. In treatment arm 2, subjects received 400 mg of SPR741 i.v. over 1 h, 400 mg of SPR741 i.v. over 1 h plus 4.5 g of piperacillin-tazobactam i.v. over 1 h, and 4.5 g of piperacillin-tazobactam i.v. over 1 h.
For both studies, maximum plasma concentration (Cmax), area under the concentration-time curve from time zero to the last measurable time point (AUC0-t), area under the concentration-time curve from time zero to infinity (AUC0-inf), time to maximum concentration (Tmax), terminal elimination rate constant (kel), terminal half-life (t1/2), terminal clearance (CL), and volume of distribution (V) were determined. PK parameters were determined using WinNonlin Phoenix, version 6.4.
For the SAD phase, blood samples were obtained predose (within 10 min), at 30 min following the start of infusion, at the end of infusion, and at 75, 90, 105, 120, and 150 min and 3, 4, 5, 6, 8, 10, 12, and 24 h following the start of infusion. For the MAD phase, blood was obtained predose (within 10 min), at 30 min following the start of infusion, at the end of infusion, and at 90 and 150 min and 3, 4, 5, 6, and 8 h following the start of infusion (day 1, first dose; day 14, last dose). Five additional blood samples were obtained at 10, 12, 24, 36, and 48 h following the start of infusion of the last dose (morning of day 14). For the DDI study, blood samples for determining plasma concentrations of SPR741 and each partner antibiotic were obtained predose (within −10 min), at 30 min, and at 1 h, 1 h 15 min, 1 h 30 min, 1 h 45 min, 2, 4, 8, 12, and 24 h postdose for each dose period. Plasma samples for drug concentration measurements were analyzed using a validated high-pressure liquid chromatography tandem mass spectrometry (HPLC-MS/MS) method. In brief, samples were spiked with a stable isotope-labeled internal standard and then extracted by protein precipitation before injection onto the HPLC-MS/MS system. Unique transitions were monitored for all test articles and internal standards. Plasma concentrations below the limit of quantitation were reported as 0.
In the SAD/MAD study, geometric means were calculated for AUC and Cmax values. Analyses using linear models were performed to assess dose proportionality (both single dose and multiple dose), time dependence, accumulation, and attainment of steady state (multiple dose). Dose proportionality was assessed using linear models for the SAD and MAD cohorts separately. […] Point estimates and 90% confidence intervals (CIs), using the residual mean square error obtained from the ANOVA, were constructed for the comparisons between treatments. The point and CI estimates were back-transformed to give estimates of the ratios (percentages) of the geometric LSMs and corresponding 90% CIs.

[1] = geometric LSM, reference treatment

## CC(=O)N[C@H](C(=O)N[C@H](CO)C(=O)N[C@H]1CCNC(=O)[C@H]([C@@H](C)O)NC(=O)[C@H](CCN)NC(=O)[C@H](CCN)NC(=O)[C@H](CC(C)C)NC(=O)[C@@H](Cc2ccccc2)NC(=O)[C@H](CCN)NC1=O)[C@@H](C)O [SPR741] (HELM PEPTIDE1{[ac].T.[dS].[Dab].[Dab].[dF].L.[Dab].[Dab].T}$PEPTIDE1,PEPTIDE1,4:R3-10:R2$$$V2.0)
  AUC0-inf, geometric LSM, reference treatment: 96,800 h·ng/ml
  Tmax: 1 h
  AUC(0-inf): 90300 ng·h/mL
  Cmax: 28100 ng/mL
[1]
  AUC(0-inf): 79300 ng·h/mL
  Cmax: 28800 ng/mL
AUC0-t
  AUC0-t: 89700 ng·h/mL
AUC0-τ, geometric LSM, reference treatment
  AUC: 78700 ng·h/mL
CL
  clearance: 75 mL/min
V
  Vd: 20.6 L
t1/2
  half-life: 3.2 h
